Results: ChEMBL document CHEMBL1143243, “Design, synthesis, evaluation, and crystallographic-based structural studies of HIV-1 protease inhibitors with reduced response to the V82A mutation” (J Med Chem, 2008)

Key:
[1] = test system: Human immunodeficiency virus 1; experiment: Ratio of Ki for HIV1 protease V82A mutant to Ki for wild type HIV1 protease
Protease = Protease (Human immunodeficiency virus 1, UniProt Q9YQ12); experiment: Binding affinity to HIV1 protease
[2] = biological target: Human immunodeficiency virus type 1 protease (Human immunodeficiency virus 1, UniProt Q72874, V82A); experiment: Binding affinity to HIV1 protease V82A mutant

Chain of Protease (Q9YQ12 whole entry): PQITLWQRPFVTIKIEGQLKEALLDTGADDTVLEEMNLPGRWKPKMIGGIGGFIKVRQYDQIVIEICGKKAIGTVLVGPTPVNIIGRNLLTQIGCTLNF

## CC(C)[C@H](NC(=O)N(C)Cc1ccccn1)C(=O)N[C@@H](Cc1ccccc1)[C@H](O)[C@@H](O)[C@H](CC1CCCCC1)NC(=O)[C@@H](NC(=O)N(C)Cc1ccccn1)C(C)C
[1]
  Ratio Ki: 4
Protease
  Ki: 3.2 nM

## CC(C)[C@H](NC(=O)N(C)Cc1ccccn1)C(=O)N[C@@H](CC1CCCCC1)[C@H](O)[C@@H](O)[C@H](CC1CCCCC1)NC(=O)[C@@H](NC(=O)N(C)Cc1ccccn1)C(C)C
[1]
  Ratio Ki: 2
Protease
  Ki: 6 nM
[2]
  Ki: 12 nM

## CC(C)[C@H](NC(=O)N(C)Cc1ccccn1)C(=O)N[C@@H](Cc1ccccc1)[C@H](O)[C@@H](O)[C@H](Cc1ccccc1)NC(=O)[C@@H](NC(=O)N(C)Cc1ccccn1)C(C)C [A-76928]
[1]
  Ratio Ki: 7
Protease
  Ki: 1.3 nM
[2]
  Ki: 9 nM
